According to paper PMC6716272, “In Vivo and In Vitro Analyses of Novel Peptidomimetic Disruptors for the Serotonin 5-HT2C Receptor Interaction With Phosphatase and Tensin Homolog” (Frontiers in Pharmacology, 2019):

Assays:
[1] = tested on: WAY163909–saline-trained rats; test: Two-lever drug discrimination, WAY163909 (0.75 mg/kg) vs saline; assay type: in vivo, rat
Method: (§1) Experimentally naïve male Sprague-Dawley rats (n = 43; Envigo, Inc.) weighing 300–325 g at the beginning of the experiment were housed two per cage in a temperature- (21–23°C) and humidity- (45–50%) controlled environment; lighting was maintained under a 12-h light–dark cycle (0700–1900 h). Rats were maintained at 80–90% of their free-feeding weights by restricting access to water. Rats received water during daily training sessions (5–6 ml/rat/session), in the afternoon several hours after training (20 min), and over the weekend (36 h). Experiments were conducted during the light phase of the light–dark cycle (between 0900 and 1200 h) and were carried out in accordance with the National Institutes of Health Guide for the Care and Use of Laboratory Animals and with the approval of the Institutional Animal Care and Use Committee at University of Texas Medical Branch.
(§2) The procedures were conducted in commercially available two-lever operant chambers (Med Associates, St. Albans, VT). Each chamber was equipped with a water-filled dispenser mounted equidistantly between two retractable response levers on the wall and housed in a light- and soundproof cubicle. Illumination came from a 28-V house light; ventilation and masking noise were provided by a ventilation fan in the right-side wall. A computer with Med-PC IV software was used to run programs and record all experimental events.
(§3) Standard two-lever, water-reinforced drug discrimination procedures were used ([Appel and Cunningham, 1986]; [Callahan and Cunningham, 1995]; [Colpaert, 1999]). Three cohorts (n = 13–16/cohort) were trained to discriminate an injection of a training drug from saline (1.0 ml/kg, i.p.) administered 15 min before start of daily (Monday–Friday) training sessions. In one cohort (n = 14), rats were trained to discriminate the training drug lorcaserin (0.75 mg/kg, 1.0 ml/kg, i.p.) from saline. In a second cohort (n = 13), rats were trained to discriminate the training drug WAY163909 (0.75 mg/kg, 1.0 ml/kg, i.p.) from saline. In the third cohort, rats (n = 16) were trained to discriminate the training drug cocaine (5 mg/kg, 1.0 ml/kg, i.p.) from saline. Two rats in the lorcaserin–saline cohort were excluded from the present study due to failure to maintain the discrimination. Rats in the WAY163909–saline cohort also participated in additional studies ([Wild et al., 2018]); the WAY163909 dose–response curve was reevaluated between studies; a washout period was allowed, and no carryover effects were observed.
(§4) During this phase, only the stimulus-appropriate (drug or saline) lever was present. Training began under a fixed ratio 1 (FR 1) schedule of water reinforcement, and the FR requirement was incremented until all animals were responding reliably under an FR 20 schedule for each experimental condition. For half of the rats, left lever responses were reinforced after training drug administration, whereas right lever responses were reinforced after saline administration; conditions were reversed for the remaining animals. During this phase of training, drug and saline were administered irregularly with the restriction that neither condition prevailed for more than three consecutive sessions.
(§5) After responding stabilized, both levers were presented simultaneously during 15-min training sessions. The rats were required to respond on the stimulus-appropriate (correct) lever to obtain water reinforcement. There were no programmed consequences for responding on the incorrect lever. This phase of training continued until the performance of all rats attained criterion (defined as mean accuracies of at least 80% stimulus-appropriate responding for 10 consecutive sessions).
(§6) Test sessions were initiated and conducted once or twice per week following attainment of criterion. Training sessions were run during the intervening days to maintain discrimination accuracy. […]

[2] = tested on: rats; conditions: TAT-r3L4F 0.1 µmol/kg; ref Cunningham et al., 2011; Anastasio et al., 2013; cited from earlier work
Excerpt: (§7) Agonist binding to the 5-HT2CR results in dynamic changes in receptor conformation and induction of a variety of intracellular signaling pathways ([Berg et al., 1994]; [McGrew et al., 2002]; [Werry et al., 2005]; [Labasque et al., 2008]). Best characterized is coupling of the 5-HT2CR to Gαq/11 proteins to activate phospholipase Cβ (PLCβ), resulting in increased intracellular calcium (Cai ^2+) release, among various other signaling outcomes ([Millan et al., 2008]). One approach to selectively target the 5-HT2CR signaling is through protein–protein interactions that are selective for 5-HT2CR ove ...

[3] = effect mimicked by Ro-600175 and reversed by SB242084; ref Ji et al., 2006; cited from earlier work
Excerpt: as §7

[4] = tested on: cocaine–saline-trained rats; test: Two-lever drug discrimination, cocaine (5 mg/kg) vs saline; assay type: in vivo, rat
Method: as §1, §2, §3, §4, §5, §6

[5] = tested on: lorcaserin–saline-trained rats; test: Two-lever drug discrimination, lorcaserin (0.75 mg/kg) vs saline; assay type: in vivo, rat
Method: as §1, §2, §3, §4, §5, §6

For “Ac-YGRKKRRPNPDQKPRRKKKEKR-NH2 [TAT-r3L4F, rat 5-HT2CR third-loop peptide r3L4F conjugated to TAT at the N terminus]”, which “response rate in combination with WAY163909 (0.5 mg/kg)” value ([1]; combination test, TAT-r3L4F 1, 2 µmol/kg i.p.) is on record?
Its value is “no change in response rates”.

What about the “drug-lever responding in combination with WAY163909 (0.5 mg/kg)” value ([1]; combination test, TAT-r3L4F 1, 2 µmol/kg i.p., p < 0.05) of the same substance?
Its value is “enhanced drug-lever responding”.

And the “response rate in substitution test” value ([1]; lorcaserin 1 mg/kg (vs saline), TAT-r3L4F 1, 2 µmol/kg (vs previous WAY163909 maintenance session))?
Its value is “significantly higher”.

What about the drug-like responding ([1]; substitution test, TAT-r3L4F 1, 2 µmol/kg i.p.) of the same substance?
Its drug-like responding is < 10%.

And the “efficacy of a subeffective dose of WAY163909 to suppress motor activity and impulsive action” value [2]?
Its value is “enhances the efficacy”.

And the “motor activity, peptide alone” value [2]?
The value was “does not suppress motor activity on its own”.

And the “∆9-tetrahydrocannabinol-induced conditioned place preference” value [3]?
The value was “blocks”.

What about the “stimulus effects of cocaine (2.5 mg/kg) and response rate, TAT-r3L4F in the absence of lorcaserin” value ([4]; TAT-r3L4F 1, 2 µmol/kg i.p. 45 min before test) of the same substance?
The value was “did not alter the stimulus effects of cocaine or the associated response rate”.

And the “cocaine-appropriate responding, TAT-r3L4F plus lorcaserin (0.5 mg/kg) before cocaine (2.5 mg/kg)” value ([4]; TAT-r3L4F 1, 2 µmol/kg, p < 0.05 vs cocaine alone, not statistically different from lorcaserin alone plus cocaine)?
The value was “significantly reduced cocaine-appropriate responding”.

What about the “lever responding in substitution test (low-dose series)” value ([4]; TAT-r3L4F alone 1, 2 µmol/kg, lorcaserin alone 0.5 mg/kg, data not shown) of the same substance?
Its value is “saline-appropriate responding”.

And the “response rates associated with cocaine (2.5 mg/kg)” value ([4]; lorcaserin alone 0.5 mg/kg, or TAT-r3L4F 1, 2 µmol/kg plus lorcaserin 0.5 mg/kg, p < 0.05)?
Its value is “significantly suppressed the response rates”.

And the “response rate in substitution test (low-dose series)” value ([4]; vs previous cocaine maintenance session, TAT-r3L4F alone 1, 2 µmol/kg, lorcaserin alone 0.5 mg/kg, data not shown)?
The value was “significant reduction in response rates”.

And the “drug-lever responding in combination with lorcaserin (0.5 mg/kg)” value ([5]; combination test, i.p., TAT-r3L4F 2 µmol/kg (p < 0.05), peptide 7 2, 5 µmol/kg)?
Its value is “enhanced drug-lever responding”.

And the “response rate in combination with lorcaserin (0.5 mg/kg)” value ([5]; combination test, i.p., TAT-r3L4F 2 µmol/kg, peptide 7 2, 5 µmol/kg)?
The value was “no change in response rates”.

And the drug-like responding ([5]; substitution test, i.p., TAT-r3L4F 1, 2 µmol/kg, peptide 7 1, 2, 5 µmol/kg (data not shown))?
Its drug-like responding is < 10%.

And the “response rate in substitution test” value ([5]; vs previous lorcaserin maintenance session, WAY163909 0.75 mg/kg, TAT-r3L4F 2 µmol/kg (trend for 1 µmol/kg))?
Its value is “significantly higher”.
